Source: patent publication US7138361B2, “Herbicidal heterocycles” (E. I. du Pont de Nemours and Company, priority 2000, dated 2006)

Tests used:
Assay type in all cases: in vivo
[1] = system: Surinam grass (Brachiaria decumbens); experiment: Test C postemergence
Text: (§1) Seeds of plant species selected from bermudagrass (Cynodon dactylon), Surinam grass (Brachiaria decumbens), cocklebur (Xanthium strumarium), corn (Zea mays), crabgrass (Digitaria sanguinalis), woolly cupgrass (Eriochloa villosa), giant foxtail (Setaria faberii), goosegrass (Eleusine indica), johnsongrass (Sorghum halepense), kochia (Kochia scoparia), lambsquarters (Chenopodium album), morningglory (Ipomoea hederacea), yellow nutsedge (Cyperus esculentus), pigweed (Amaranthus retroflexus), common ragweed (Ambrosia elatior), soybean (Glycine max) and velvetleaf (Abutilon theophrasti) were planted and treated preemergence with test chemicals formulated in a non-phytotoxic solvent mixture which included a surfactant.
(§2) At the same time, plants selected from these crop and weed species and also winter barley (Hordeum vulgare), blackgrass (Alopecurus myosuroides), canary grass (Phalaris minor), chickweed (Stellaria media), downy brome (Bromus tectorum), green foxtail (Setaria viridis), Italian ryegrass (Lolium multiflorum), wheat (Triticum aestivum), wild oat (Avena fatua) and windgrass (Apera spica-venti) were treated with postemergence applications of some of the test chemicals formulated in the same manner. Plants ranged in height from 2 to 18 cm (1- to 4-leaf stage) for postemergence treatments. Plant species in the flooded paddy test consisted of rice (Oryza saliva), smallflower flatsedge (Cyperus difformis), duck salad (Heteranthera limosa) and barnyardgrass (Echinochloa crus-galli) grown to the 2-leaf stage for testing. Treated plants and controls were maintained in a greenhouse for 12 to 14 days, after which time all species were compared to controls and visually evaluated. Plant response ratings, summarized in Table C, are based on a scale of 0 to 100 where 0 is no effect and 100 is complete control. A dash (-) response means no test result.

[2] = system: bermudagrass (Cynodon dactylon); experiment: Test C postemergence
Text: as §1, §2

[3] = system: cocklebur (Xanthium strumarium); experiment: Test C postemergence; conditions: scale 0 to 100
Text: as §1, §2

[4] = system: common ragweed (Ambrosia elatior); experiment: Test C postemergence; conditions: scale 0 to 100
Text: as §1, §2

corn (Zea mays) = experiment: Test C postemergence; conditions: scale 0 to 100
Text: as §1, §2

[5] = system: crabgrass (Digitaria sanguinalis); experiment: Test C postemergence
Text: as §1, §2

[6] = system: giant foxtail (Setaria faberii); experiment: Test C postemergence
Text: as §1, §2

[7] = system: goosegrass (Eleusine indica); experiment: Test C postemergence
Text: as §1, §2

[8] = system: johnsongrass (Sorghum halepense); experiment: Test C postemergence
Text: as §1, §2

kochia (Kochia scoparia) = experiment: Test C postemergence
Text: as §1, §2

[9] = system: lambsquarters (Chenopodium album); experiment: Test C postemergence
Text: as §1, §2

[10] = system: pigweed (Amaranthus retroflexus); experiment: Test C postemergence
Text: as §1, §2

soybean (Glycine max) = experiment: Test C postemergence
Text: as §1, §2

[11] = system: velvetleaf (Abutilon theophrasti); experiment: Test C postemergence; conditions: scale 0 to 100
Text: as §1, §2

[12] = system: yellow nutsedge (Cyperus esculentus); experiment: Test C postemergence
Text: as §1, §2

[13] = system: common ragweed (Ambrosia elatior); experiment: Test C preemergence
In short: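 Formulation: non-phytotoxic solvent mix incl. surfactant. Pre: applied right after planting. Post: 1–4-leaf seedlings. Read: visual 0–100, day 12–14, greenhouse.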

Sunflower = experiment: Test C preemergence; conditions: scale 0 to 100
[14] = Rate 125 g/ha, scale 0 to 100, 0 no effect, 100 complete control
[15] = Rate 250 g/ha, scale 0 to 100 (0 no effect, 100 complete control)

Cc1ccc(N2CCC(n3ccc(C(C)(C)C)n3)C2=O)cc1OCCCl (stereo not shown) [Compound 109]
Plant response rating, Surinam grass ([1]; Rate 31 g/ha, scale 0 to 100): 0 | Plant response rating, Surinam grass ([1]; Rate 62 g/ha, scale 0 to 100): 0 | Plant response rating, Surinam grass [1, 14]: 0 | Plant response rating, Surinam grass [1, 15]: 0 | Plant response rating, Bermudagrass ([2]; Rate 31 g/ha, scale 0 to 100): 0 | Plant response rating, Bermudagrass ([2]; Rate 62 g/ha, scale 0 to 100): 0 | Plant response rating, Bermudagrass [2, 14]: 10 | Plant response rating, Bermudagrass [2, 15]: 20 | Plant response rating, Cocklebur ([3]; Rate 31 g/ha): 0 | Plant response rating, Cocklebur ([3]; Rate 62 g/ha): 40 | Plant response rating, Ragweed, Common ([4]; Rate 31 g/ha): 0 | Plant response rating, Ragweed, Common ([4]; Rate 62 g/ha): 0 | Plant response rating, Corn (corn (Zea mays); Rate 31 g/ha): 0 | Plant response rating, Corn (corn (Zea mays); Rate 62 g/ha): 0 | Plant response rating, Corn (corn (Zea mays)): 40 | Plant response rating, Crabgrass ([5]; Rate 31 g/ha, scale 0 to 100): 0 | Plant response rating, Crabgrass ([5]; Rate 62 g/ha, scale 0 to 100): 0 | Plant response rating, Crabgrass [5, 15]: 0 | Plant response rating, Foxtail, Giant ([6]; Rate 31 g/ha, scale 0 to 100): 0 | Plant response rating, Foxtail, Giant ([6]; Rate 62 g/ha, scale 0 to 100): 0 | Plant response rating, Foxtail, Giant [6, 15]: 0 | Plant response rating, Goosegrass ([7]; Rate 31 g/ha, scale 0 to 100): 0 | Plant response rating, Goosegrass ([7]; Rate 62 g/ha, scale 0 to 100): 0 | Plant response rating, Goosegrass [7, 15]: 10 | Plant response rating, Johnsongrass ([8]; Rate 31 g/ha, scale 0 to 100): 0 | Plant response rating, Johnsongrass ([8]; Rate 62 g/ha, scale 0 to 100): 0 | Plant response rating, Johnsongrass [8, 15]: 0 | Plant response rating, Johnsongrass ([8]; rate not given, scale 0 to 100): 0 | Plant response rating, Kochia (kochia (Kochia scoparia); Rate 31 g/ha, scale 0 to 100): 80 | Plant response rating, Kochia (kochia (Kochia scoparia); Rate 62 g/ha, scale 0 to 100): 80 | Plant response rating, Kochia (kochia (Kochia scoparia); [15]): 90 | Plant response rating, Lambsquarters ([9]; Rate 31 g/ha, scale 0 to 100): 70 | Plant response rating, Lambsquarters ([9]; Rate 62 g/ha, scale 0 to 100): 70 | Plant response rating, Lambsquarters [9, 15]: 100 | Plant response rating, Pigweed ([10]; Rate 31 g/ha, scale 0 to 100): 70 | Plant response rating, Pigweed ([10]; Rate 62 g/ha, scale 0 to 100): 70 | Plant response rating, Pigweed [10, 15]: 70 | Plant response rating, Soybean (soybean (Glycine max); Rate 31 g/ha, scale 0 to 100): 60 | Plant response rating, Soybean (soybean (Glycine max); Rate 62 g/ha, scale 0 to 100): 70 | Plant response rating, Soybean (soybean (Glycine max); [15]): 70 | Plant response rating, Velvetleaf ([11]; Rate 31 g/ha): 20 | Plant response rating, Velvetleaf ([11]; Rate 62 g/ha): 40 | Plant response rating, Velvetleaf [11]: 70 | Plant response rating, Nutsedge ([12]; Rate 31 g/ha, scale 0 to 100): 0 | Plant response rating, Nutsedge ([12]; Rate 62 g/ha, scale 0 to 100): 0 | Plant response rating, Nutsedge [12, 15]: 0 | Plant response rating, Ragweed, Common [13, 14]: 100 | Plant response rating, Ragweed, Common ([13]; preemergence, Rate 31 g/ha, scale 0 to 100): 10 | Plant response rating, Ragweed, Common ([13]; preemergence, Rate 62 g/ha, scale 0 to 100): 90 | Plant response rating, Ragweed, Common ([13]; preemergence, Rate 250 g/ha, scale 0 to 100, 0 no effect, 100 complete control): 100 | Plant response rating, Sunflower (Sunflower; Rate 31 g/ha): 40 | Plant response rating, Sunflower (Sunflower; Rate 62 g/ha): 70
